Assay: Solution-based crystallization study, in situ UV/Vis probe
Format: physicochemical
Conditions: absence of polymer (control); pH 6.8 buffer, start about 80 μg/mL, FIG. 13-A
Experimental: Several polymers (Kollidon VA64, HPMC E5, HPMC K3, PVP K30, and Vitamin E TPGS) were evaluated for their effectiveness in inhibiting or delaying precipitation of the free acid of Compound A through a solution-based mechanism. About 0.05 mL of a highly concentrated solution of Compound A monosodium salt monohydrate dissolved in dimethyl sulfoxide (16 mg/mL on a free acid equivalent weight basis) was added to 10 mL of pH 6.8 sodium phosphate buffer (50 mM phosphate with ionic strength adjusted to 0.155 M with sodium chloride) containing one of the polymers at one of […] different concentrations (0% (control), 0.001%, 0.01%, and 0.1% (weight polymer/volume buffer %)) to provide a supersaturated Compound A solution (about 80 μg/mL on a free acid equivalent weight basis). The supersaturated solution was continuously stirred at 300 rpm at ambient temperatures (about 26° C.) and the solution concentration was monitored for 30 minutes by an in situ UV/Vis dip probe (μDISS Profiler™, pION Inc, Woburn, Mass. 01801, USA) using an external standard.

concentration of Compound A in the solution after decrease: about 20 μg/mL
Compound: COc1c(-c2ccc3cc(NS(C)(=O)=O)ccc3c2)cc(-n2ccc(=O)[nH]c2=O)cc1C(C)(C)C [Compound A, N-(6-(3-tert-butyl-5-(2,4-dioxo-3,4-dihydropyrimidin-1(2H)-yl)-2-methoxyphenyl)naphthalen-2-yl)methanesulfonamide]

Source: patent US10201542B2, “Formulations of pyrimidinedione derivative compounds” (AbbVie Inc., priority 2012, dated 2019)
